Measured values taken from patent publication US4060612A, “Pharmaceutically active 2-omega-aminoalkoxydiphenyl sulfides” (Mitsubishi Chemical Industries Ltd., priority 1976, dated 1977).
Where a name gives a salt, the structure may show the parent alone. Read-outs that look alike come from different tables or passages of the source.

Columns and labels:
[1] = system: reserpine induced hypothermia; assay: Antagonism of reserpine induced hypothermia in mice (antidepressant / antireserpine activity); type: in vivo; settings: for Relative Potency (antireserpine activity, Amitriptyline = 1): reserpine 5 mg/kg i.p., compounds given intraperitoneally
Procedure: (§1) Anticonvulsant activity has also been discovered in the compounds of this invention. The compounds have been tested in mice for antidepressant, sedative, anticonvulsant and anticholinergic activity. The compounds were administered intraperitoneally and the activities of the compounds were compared with those of Amitriptyline. Antidepressant activity was evaluated by antagonism of reserpine (5 mg/kg, i.p.) induced hypothermia (P. S. J. Spencer in "Antidepressant Drugs", S. Garattini and M. N. G. Duhes, ed., Excerpta Medica Foundation, Amsterdam, pages 194-204 (1967)) and antireserpine activity was expressed as relative potency (Amitriptyline = 1). LD50 was calculated by the Litchfield-Wilcoxon method. CNS depressant activity was defined by the ability of the compounds to cause neurological deficit as measured by a traction test (S. Courvoisier, R. Ducrot, L. Julou; "Psychotropic Drugs" ed. by S. Garattini, V. Ghetti, page 373 (1957)) and spontaneous motor activity. (Spontaneous motor activity was measured by an ANIMEX apparatus.) Anticonvulsant activity was determined by antagonism of electroshock induced tonic extensor [L. S. Goodman, M. Singh Grewal, W. C. Brown and E. A. Swinyard, J. Pharmacol, Exptal. Therap., 108, 168 (1953)]. Central anticholinergic effect was assessed by testing a tremorine induced tremor in mice [G. M. Everett, L. E. Bloucus and J. M. Sheppard, Science 124, 79 (1956)]. Results of these tests are summarized in Tables I and II, in which ED50 is defined as the dose of the test compounds which prevents 50% of each response.

[2] = Acute toxicity, LD50 (Litchfield-Wilcoxon method); type: in vivo; settings: for LD50: mouse, in vivo, ip
Procedure: as §1

[3] = system: electroshock induced tonic extensor; assay: Anticonvulsant activity: antagonism of electroshock induced tonic extensor; type: in vivo, mice; settings: Mus musculus, ip, read-out: Anticonvulsant Activity ED50
Procedure: as §1, with “Therap., 108, 168 (1953)].” left out, “Results of these tests are summarized in Tables I and II, in which ED50 is defined as the dose of the test compounds which prevents 50% of each response.” left out

[4] = system: neurological deficit (traction test); assay: CNS depressant activity: muscle relaxant action (traction test); type: in vivo, mice; settings: for ED50: Mus musculus, ip, read-out: Muscle Relaxant Action ED50
Procedure: as §1

[5] = system: spontaneous motor activity; assay: CNS depressant activity: spontaneous motor activity (ANIMEX apparatus); type: in vivo, mice; settings: Mus musculus, ip, read-out: Spontaneous Motor Activity Depression ED50
Procedure: as §1, with “Therap., 108, 168 (1953)].” left out, “Results of these tests are summarized in Tables I and II, in which ED50 is defined as the dose of the test compounds which prevents 50% of each response.” left out

[6] = system: tremorine induced tremor; assay: Central anticholinergic effect: tremorine induced tremor in mice; type: in vivo; settings: for ED50: Mus musculus, ip, read-out: Antitremorine Effect ED50
Procedure: as §1

[7] = intraperitoneal, mice, Litchfield-Wilcoxon, read-out: LD50

With `CNCCCCOc1ccccc1Sc1ccccc1` [2-(4-methylaminobutoxy) diphenyl sulfide hydrochloride] the “antireserpine activity (in words)” value ([1]; i.p., from Tables I and II) was “comparable to that of Amitriptyline”, the “Relative Potency (antireserpine activity, Amitriptyline = 1)” value (“Relative Potency” below) [1] was 0.90 and the “toxicity (in words)” value ([2]; mice, i.p., from Tables I and II) was “low toxicity”. The LD50 [2] was 120 mg/kg, the ED50 ([3]; electroshock, mice, i.p., dose which prevents 50% of response) was > 60 mg/kg and the ED50 ([4]; traction test, mice, i.p., CNS depressant activity) was 50 mg/kg. The “CNS depressant action (in words)” value ([4]; mice, i.p., traction test and spontaneous motor activity) was “weak”, the ED50 ([5]; ANIMEX, mice, i.p., CNS depressant activity) was > 60 mg/kg and the ED50 ([6]; tremorine induced tremor, mice, i.p., central anticholinergic) was 30 mg/kg. The “anticholinergic action (in words)” value ([6]; mice, i.p.) was “weak CNS depressant and anticholinergic action”.
Compound `CN(C)CCC=C1c2ccccc2CCc2ccccc21` [Amitriptyline, reference compound] has an ED50 [3] of 16 mg/kg, an ED50 [4] of 15 mg/kg and an ED50 [5] of 18 mg/kg. For the same compound, the ED50 [6] was 4 mg/kg.
With `CN(C)CCCOc1ccccc1Oc1ccccc1` [2-(3-dimethylaminopropoxy) diphenyl ether hydrochloride, reference compound] the “Relative Potency” value [1] was 0.14.
In the case of `NCCCCOc1ccccc1Sc1ccccc1` [2-(4-aminobutoxy) diphenyl sulfide hydrochloride], the “Relative Potency” value [1] is reported as 0.36.
With `CN(C)CCCCOc1ccccc1Sc1ccccc1` [2-(4-dimethylaminobutoxy)-diphenyl sulfide hydrochloride] the “Relative Potency” value [1] was 0.70 and the LD50 [2, 7] was 130 mg/kg.
For `CNCCCOc1ccccc1Sc1ccccc1` [2-(3-methylaminopropoxy) diphenyl sulfide hydrochloride], the “Relative Potency” value [1] was 0.60 and the LD50 [2, 7] was 135 mg/kg.
With `CN(C)CCCCCOc1ccccc1Sc1ccccc1` [2-(5-dimethylaminopentyloxy) diphenyl sulfide hydrochloride] the “Relative Potency” value [1] was 0.15.
With `c1ccc(Sc2ccccc2OCCCCN2CCOCC2)cc1` [2-(4-morpholinobutoxy) diphenyl sulfide hydrochloride] the “Relative Potency” value [1] was 0.38.
